Data reported in patent US7435801B2, “Antibodies and other ligands directed against KIR2DL4 receptor for production of interferon gamma” (The United States of America, as represented by the …, priority 2000, dated 2008).

Legend:
[1] = test system: 2DL4-induced production of IFN-gamma; experiment: MAPK inhibitors on anti-2DL4 mAb-induced IFN-gamma secretion by resting NK cells; assay type: cell-based, human
[2] = test system: IL-2-mediated induction of IFN-gamma production; experiment: MAPK inhibitors on rIL-2-induced IFN-gamma release by resting NK cells; assay type: cell-based, human; conditions: rIL-2 5 U/ml, 20 h

Row | SMILES | inhibition of 2DL4-induced IFN-gamma production ([1]; 1 μM inhibitor) | effect on IL-2-mediated induction of IFN-gamma production ([2]; concentration not given) | inhibition of 2DL4-induced IFN-gamma production ([1]; concentration not given) | inhibition of IL-2-mediated induction of IFN-gamma production ([2]; 50 μM inhibitor)
1 | C[S+]([O-])c1ccc(-c2nc(-c3ccncc3)c(-c3ccc(F)cc3)[nH]2)cc1 (stereo not shown) [SB203580] | Complete inhibition | unaffected | – | –
2 | COc1cccc(-c2cc(=O)c3ccccc3o2)c1N [PD98059] | – | – | only a partial inhibitory effect | severely inhibited
